Drawing on ChEMBL document CHEMBL3045893, “QSAR analysis of N-myristoyltransferase inhibitors: antifungal activity of benzofurans” (Med Chem Res, 2009), this text covers IC50 for 23 compounds.

In this assay the target is T1, Glycylpeptide N-tetradecanoyltransferase (Candida albicans (strain SC5314 / ATCC MYA-2876) (Yeast), UniProt P30418).
T1 sequence (P30418 whole entry): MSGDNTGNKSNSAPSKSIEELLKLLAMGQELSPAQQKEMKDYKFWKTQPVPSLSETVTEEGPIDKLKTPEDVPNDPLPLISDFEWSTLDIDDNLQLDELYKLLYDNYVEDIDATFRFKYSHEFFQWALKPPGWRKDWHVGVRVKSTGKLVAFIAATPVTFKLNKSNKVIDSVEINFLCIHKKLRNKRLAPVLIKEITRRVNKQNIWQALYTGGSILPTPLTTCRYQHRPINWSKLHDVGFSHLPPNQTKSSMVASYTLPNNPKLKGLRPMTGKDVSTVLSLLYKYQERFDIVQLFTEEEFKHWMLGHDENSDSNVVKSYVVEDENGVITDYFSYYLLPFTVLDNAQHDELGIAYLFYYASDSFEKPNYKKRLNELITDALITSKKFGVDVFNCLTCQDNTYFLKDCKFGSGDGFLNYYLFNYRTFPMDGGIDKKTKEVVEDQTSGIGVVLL
The experiment in a line: Inhibition of candida N-myristoyltransferase.
The IC50 is the midpoint of a concentration-inhibition curve. Lower therefore signals greater potency in that assay. Regarding `Cc1c(COc2ccccc2)oc2cccc(OCCNCc3cccnc3)c12`, the IC50 was determined as 72 nM. This lies in the double-digit nanomolar range. In the case of `Cc1c(COc2ccc(F)cc2)oc2cccc(OCCNCc3cccnc3)c12` it was 5.2 nM. For `CCOC(=O)c1oc2cccc(OCCNCc3cccnc3)c2c1C(C)C`, half-maximal inhibition (IC50) required 83000 nM.

Compound `CCOC(=O)c1oc2cccc(OCCCCCNC(C)(C)C)c2c1C` registered a half-maximal inhibitory concentration (IC50) of 1500 nM.

As for `CCOC(=O)c1oc2cccc(OCCCCNC(C)(C)C)c2c1C`, the half-maximal inhibitory concentration (IC50) came to 4400 nM. In the case of `Cc1c(COc2ccccc2F)oc2cccc(OCCNCc3cccnc3)c12`, the half-maximal inhibitory concentration (IC50) was found to be 8.3 nM. As for `Cc1c(COc2cccc(F)c2)oc2cccc(OCCNCc3cccnc3)c12`, the IC50 worked out at 110 nM. This IC50 lies about 13-fold higher than the previous one. In the case of `CCOC(=O)c1cc2c(OCCNCc3cccnc3)cccc2o1` it was 79000 nM; in that of `CCOC(=O)c1oc2cccc(OCCNCc3cccnc3)c2c1CC`, 10000 nM; in that of `Cc1c(CCc2ccccc2)oc2cccc(OCCNCc3cccnc3)c12`, 1200 nM. The compound `COCc1ccc2oc(-c3oc4cccc(OCCNCc5cccnc5)c4c3C)cc2c1` had an IC50 of 3 nM. In the case of `Cc1c(COc2ccc(Cl)cc2)oc2cccc(OCCNCc3cccnc3)c12`, the 50% inhibitory concentration (IC50) amounted to 73 nM. This IC50 is about 24-fold higher than that of the compound before. In the case of `CCOC(=O)c1oc2cccc(OCCNCc3ccccc3)c2c1C` it was 3300 nM; in that of `CCOC(=O)c1oc2cccc(OCCNCc3cccnc3)c2c1C1CC1`, 4400 nM.

Compound `CCOC(=O)c1oc2cccc(OCCNC(C)(C)C)c2c1C` yielded an IC50 of 50000 nM. The value for `CC(=O)c1nccn1-c1oc2cccc(OCCNCc3cccnc3)c2c1C` was 1 nM; that for `Cc1c(C(=O)Nc2ccccc2)oc2cccc(OCCNCc3cccnc3)c12` was 2200 nM. In the case of `Cc1c(COc2ccc(F)cc2F)oc2cccc(OCCNCc3cccnc3)c12` it was 7.5 nM. `CCOC(=O)c1oc2cccc(OCC(O)CNC(C)(C)C)c2c1C` (stereo not drawn) had a half-inhibitory concentration (IC50) of 1200 nM. `Cc1c(COc2ccccc2C#N)oc2cccc(OCCNCc3cccnc3)c12` yielded a concentration for half-maximal inhibition (IC50) of 17 nM. In the case of `Cc1c(COc2ccc(C#N)cc2)oc2cccc(OCCNCc3cccnc3)c12` it was 9.4 nM; in that of `CCOC(=O)c1oc2cccc(OCCNCc3cccnc3)c2c1C`, 100 nM; in that of `CCOC(=O)c1oc2cccc(OCCCN3CCCCC3)c2c1C`, 1600 nM.
